Test results taken from patent US20120283212A1, “USE OF POLYSACCHARIDES FOR TREATING STRESS AND ANXIETY” (ROQUETTE FRERES, priority 2009, published 2012).

Legend:
[1] = test system: male Wistar rat; test: Functional observational battery (FOB); assay type: in vivo; conditions: diazepam 3 mg/kg on D14; for Spontaneous activity on D14 (score): score 0=excited, 1 to 3 moderate rapid movements, 4 no activity; for Finger approach reaction on D14 (score): score 0=none, 1 to 3=slight to strong escape; for Respiratory rate on D14 (score): score 0=slow, 1=normal, 2 rapid
Protocol: The effects of an oligosaccharide administered orally at doses of 0.7 and 1.4 g/kg for 14 days were evaluated in a functional observational battery (FOB) in the male Wistar rat. The objective of this FOB test is to evaluate the change in behavioral, neurological and physiological parameters of the rats according to the products tested.
For this, a polysaccharide (PS1) as defined in table 1 is administered by esophageal gavage daily at these two doses for 14 days (6 rats per group). Similarly, a vehicle control consisting of spring water is administered under these conditions. The reference positive control is diazepam: from D0 to D13, methylcellulose is administered to the rats and on D14, diazepam at 3 mg/kg of body weight is also administered.
The animals are subjected to the functional observational battery before treatment on D0 and at the end of the study on D14.
Each test comprises three observational phases: • a direct observational phase during which the animal is not disturbed, • an active observational phase during which the animal is handled, • a phase devoted to evaluating the reactions of the animals to reactivity tests.
Several variables are recorded: • Behavioral effects: spontaneous locomotor activity, locomotor behavior disorders, emotionality (vocalization frequency), touch escape reaction, irritability, provoked aggressiveness and freezing behaviors, sleeping/awakening, urination and defecation, sensorimotor responses (visual placing, toe pinch and sound stimulus reaction). • Neurological effects: pupillary response, palpebral reflex, pelvic elevation, tail position, limb and abdominal muscle tone, righting test, grip strength test, suspension test, tremors and piloerection. • Physiological effects: salivation, lacrimation, diarrhea, rectal temperature, heart and respiratory rate.
Definition of the scores: • Spontaneous activity: 0=excited; 1 to 3 moderate rapid movements; 4: no activity. • Finger approach reaction: 0=none; 1 to 3=slight to strong escape. • Respiratory rate: 0=slow; 1=normal; 2 rapid. • Sound stimulus startle reaction: 0=slight; 1=<1 cm; 2=>1 cm.

[2] = test system: male Wistar rat; test: Conditioned Defensive Burying (CDB) test; assay type: in vivo; conditions: the greater the stress, the higher the score
Protocol: The anti-stress effects of a PS1 polysaccharide, administered orally for 14 days, were evaluated in the male Wistar rat in the Conditioned Defensive Burying (CDB) test.
For this, the PS1 is administered by esophageal gavage daily at the doses of 0.7, 1.4 and 2.8 g/kg of body weight for 14 days (8 rats per group). Similarly, a vehicle control represented by spring water is administered under the same conditions. The reference positive control is diazepam: from D0 to D13, methylcellulose is administered to the rats, and on D14, diazepam at 1 mg/kg or 3 mg/kg of body weight is administered to the rats. The PS1 and diazepam mixture is also studied: the PS1 is administered for 14 days alone, and on D14, diazepam at 1 mg/kg is added to the esophageal gavage of the PS1.
On D14, the rats are subjected to the Conditioned Defensive Burying (CDB) test. For this, an electric probe is inserted into a cage before the start of the test. Each rat is placed in the experimental device on the opposite side to the probe and a single electric shock, of weak intensity (2 mA), is delivered to the animal at the moment it places its front paw on the probe for the first time. Following the shock, the behavior of the rat is recorded for five minutes; an overall stress score is attributed for each rat. The greater the stress, the higher the score.

Compound: CN1C(=O)CN=C(c2ccccc2)c2cc(Cl)ccc21 [Diazepam, diazepam]
- Heart rate on D14, in comparison with the vehicle [1]: significantly slower
- Spontaneous activity on D14 (score) [1]: 2.16
- Spontaneous activity on D14 (score) ([1]; listed as reference): tend to be significantly less active
- Finger approach reaction on D14 (score) [1]: 0.18
- Finger approach reaction on D14 (score) ([1]; listed as reference): significantly less reactive to a finger approach
- Sound stimulus startle reaction on D14 (score) ([1]; score 0=slight, 1=<1 cm, 2=>1 cm): 0.00
- Respiratory rate on D14 (score) [1]: 1.14
- Respiratory rate on D14 (score) ([1]; listed as reference): significantly slower
- Overall stress score (Mean ± SEM) ([2]; diazepam 1 mg/kg on D14): 92.57 ± 17.99
- Overall stress score (Mean ± SEM) ([2]; diazepam 3 mg/kg on D14): 65.25 ± 7.15
- Overall stress score (Mean ± SEM) ([2]; diazepam 3 mg/kg on D14, listed as diazepam): significantly lower than that of the vehicle group
